Data published in ChEMBL document CHEMBL3045427, “Synthesis, anticonvulsant and neurotoxic activity of some new 2,5-disubstituted-1,3,4-oxadiazoles” (Med Chem Res, 2011).
The source made the active and inactive calls. The rule behind the calls is not given here.

Key:
Mus musculus [1] = experiment: Anticonvulsant activity in Mus musculus albino (mouse) assessed as protection against subcutaneous metrazole-induced seizure at 300 mg/kg, ip after 4 hr; assay type: functional, organism-based; design: dose 300 mg/kg
Mus musculus [2] = experiment: Neurotoxicity in Mus musculus albino (mouse) assessed as minimal motor impairment at 300 mg/kg, ip after 0.5 hr by rotarod test; assay type: toxicity, organism-based; design: dose 300 mg/kg, route intraperitoneal; details: in vivo
Mus musculus [3] = experiment: Anticonvulsant activity in Mus musculus albino (mouse) assessed as protection against subcutaneous metrazole-induced seizure at 300 mg/kg, ip after 0.5 hr; assay type: functional, organism-based; design: dose 300 mg/kg
Mus musculus [4] = experiment: Anticonvulsant activity in Mus musculus albino (mouse) assessed as protection against maximal electroshock-induced seizure at 300 mg/kg, ip after 0.5 hr; assay type: functional, organism-based; design: dose 300 mg/kg
Mus musculus [5] = experiment: Neurotoxicity in Mus musculus albino (mouse) assessed as minimal motor impairment at 300 mg/kg, ip after 4 hr by rotarod test; assay type: toxicity, organism-based; design: dose 300 mg/kg, route intraperitoneal; details: in vivo
Mus musculus [6] = experiment: Anticonvulsant activity in Mus musculus albino (mouse) assessed as protection against maximal electroshock-induced seizure at 300 mg/kg, ip after 4 hr; assay type: functional, organism-based; design: dose 300 mg/kg
Mus musculus [7] = experiment: Anticonvulsant activity in ip dosed Mus musculus albino (mouse) assessed as protection against maximal electroshock-induced seizure after 0.5 hr; assay type: functional; details: read-out: MED
Mus musculus [8] = experiment: Anticonvulsant activity in ip dosed Mus musculus albino (mouse) assessed as protection against maximal electroshock-induced seizure after 4 hr; assay type: functional; details: read-out: MED
Mus musculus [9] = experiment: Neurotoxicity in ip dosed Mus musculus albino (mouse) assessed as minimal motor impairment after 0.5 hr by rotarod test; assay type: toxicity, organism-based; details: in vivo
Mus musculus [10] = experiment: Neurotoxicity in ip dosed Mus musculus albino (mouse) assessed as minimal motor impairment after 4 hr by rotarod test; assay type: toxicity, organism-based; details: in vivo
Mus musculus [11] = experiment: Anticonvulsant activity in ip dosed Mus musculus albino (mouse) assessed as protection against subcutaneous metrazole-induced seizure after 0.5 hr; assay type: functional; details: read-out: MED
Mus musculus [12] = experiment: Anticonvulsant activity in ip dosed Mus musculus albino (mouse) assessed as protection against subcutaneous metrazole-induced seizure after 4 hr; assay type: functional; details: read-out: MED

| SMILES | Activity (Mus musculus [1]) | Activity (Mus musculus [2]) | Activity (Mus musculus [3]) | Activity (Mus musculus [4]) | Activity (Mus musculus [5]) | Activity (Mus musculus [6]) | minimal effective dose (Mus musculus [7]) [mg/kg] | minimal effective dose (Mus musculus [8]) [mg/kg] | MTC (Mus musculus [9]) [mg/kg] | MTC (Mus musculus [10]) [mg/kg] | minimal effective dose (Mus musculus [11]) [mg/kg] | minimal effective dose (Mus musculus [12]) [mg/kg] |
| --- | --- | --- | --- | --- | --- | --- | --- | --- | --- | --- | --- | --- |
| COc1ccc(-c2nnc(/N=C\C=C(\C)CCC=C(C)C)o2)cc1 | inactive | Non-toxic | inactive | inactive | Non-toxic | inactive | – | – | – | – | – | – |
| CC(C)=CCC/C(C)=C\C=N/NC(=O)Nc1nnc(-c2ccc(Cl)cc2)o1 | inactive | Non-toxic | inactive | – | Non-toxic | inactive | 30 | – | – | – | – | – |
| COc1ccc(-c2nnc(NC(=O)N/N=C\C=C(\C)CCC=C(C)C)o2)cc1 | inactive | Non-toxic | inactive | inactive | Non-toxic | – | – | 300 | – | – | – | – |
| CC(C)=CCC/C(C)=C\C=N/NC(=O)Nc1nnc(-c2ccccc2)o1 | inactive | Non-toxic | inactive | inactive | Non-toxic | – | – | 300 | – | – | – | – |
| NC(=O)N1c2ccccc2C=Cc2ccccc21 [CARBAMAZEPINE] | – | – | – | – | – | – | 30 | 100 | 100 | 300 | 100 | 300 |
| CC(C)=CCC/C(C)=C\C=N/c1nnc(-c2ccccc2)o1 | – | – | – | – | – | – | 30 | 100 | 300 | 300 | 300 | 300 |
| CC(C)=CCC/C(C)=C\C=N/c1nnc(-c2ccc(C)cc2)o1 | inactive | Non-toxic | inactive | inactive | Non-toxic | inactive | – | – | – | – | – | – |
| O=C1NC(=O)C(c2ccccc2)(c2ccccc2)N1 [PHENYTOIN] | inactive | – | inactive | – | – | – | 30 | 30 | 100 | 100 | – | – |
| CC(C)=CCC/C(C)=C\C=N/c1nnc(-c2ccc(Cl)cc2)o1 | – | Non-toxic | inactive | inactive | Non-toxic | – | – | 300 | – | – | – | 300 |
| CC(C)=CCC/C(C)=C\C=N/NC(=O)Nc1nnc(-c2ccc(C)cc2)o1 | inactive | Non-toxic | inactive | inactive | Non-toxic | – | – | 300 | – | – | – | – |
